Two molecules from patent publication US10738082B2, “One-bead-two-compound macrocyclic library and methods of preparation and use” (University of South Florida, priority 2017, dated 2020) can be followed below.

One test deals with cell migration. Particulars: 10 μM, 24 hours. How it is done: Invasion and migration assays were performed as described before. Cells were plated into the top chambers and treated with either vehicle or 10 μM C-84. 24 hours later cells in top chamber were scraped and migrated cells were fixed with crystal violet staining.
The test system of a further test is cell invasion. The experiment in a line: Cell invasion assay. In kind it is cell-based. As to conditions: 10 μM, 24 hours. How it is done:
Invasion and migration assays were performed as described before.

The next test deals with GST protein (Schistosoma japonicum, UniProt P08515). The experiment in a line: Fluorescence polarization (FP) binding assay, GST protein.

SMILES strings stand for the structures.

Sequence of GST protein (P08515 whole entry): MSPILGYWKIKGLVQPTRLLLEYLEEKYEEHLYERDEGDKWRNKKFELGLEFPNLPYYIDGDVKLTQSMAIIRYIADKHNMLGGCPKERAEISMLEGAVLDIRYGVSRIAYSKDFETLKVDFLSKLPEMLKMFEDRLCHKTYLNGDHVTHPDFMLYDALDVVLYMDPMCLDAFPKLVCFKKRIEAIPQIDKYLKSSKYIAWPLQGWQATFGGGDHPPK

As to `NC(=O)CN1C[C@H](Cc2ccccc2)NC(=O)CN(C(=O)CCC(=O)O)C[C@H](CCC(=O)O)NC(=O)CN(C(=O)Cc2ccc3c(c2)OCO3)C[C@H](CCC(=O)O)NC(=O)CN(C(=O)CCC2CCCCC2)C[C@H](Cc2ccccc2)NC(=O)c2ccc(cc2)CSCCC1=O` [C-84], in the test on cell migration, the “decrease in cell migration” value was “around 70%”. In addition, the “decrease in cell invasion” value in the test with cell invasion is reported as roughly 80%.

For the molecule `NC(=O)[C@H](CCCCNC(=S)Nc1ccc(-c2c3ccc(=O)cc-3oc3cc(O)ccc23)c(C(=O)O)c1)NC(=O)CN1C[C@H](Cc2ccccc2)NC(=O)CN(C(=O)CCC(=O)O)C[C@H](CCC(=O)O)NC(=O)CN(C(=O)Cc2ccc3c(c2)OCO3)C[C@H](CCC(=O)O)NC(=O)CN(C(=O)CCC2CCCCC2)C[C@H](Cc2ccccc2)NC(=O)c2ccc(cc2)CSCCC1=O` [YS-D-44], the “GST binding weaker than EphA2 binding” value at GST protein (Kd GST vs Kd EphA2) is given as roughly 150 fold. In addition, the Kd on GST protein (fluorescence polarization, 50 nM FITC labeled AApeptide, GST 0.3125 to 55 μM, read-out: binding affinity to GST protein, Kd) turned out to be 12.3 µM.

In general, Kd refers to the constant that tells how readily two partners part at equilibrium.
